Two molecules from BindingDB's records for doi:10.1021/jm990590f (Dupont Pharmaceuticals, 2000) can be followed below.

The target in assay [1] is Corticotropin-releasing factor receptor 1 (Rattus norvegicus) (UniProt P35353). Put plainly: Compound was tested for the inhibition of binding of the radioligand, [125 I-Tyr0]-CRF to rat cerebral cortex membrane.
For assay [2] the target is unchanged. Put plainly: Inhibition of corticotropin releasing factor receptor mediated increase in cAMP level using rat cortical homogenates in vitro. (Changes in cAMP serve as a functional read-out for many G protein-coupled receptors.)

Sequence of Corticotropin-releasing factor receptor 1 (Rattus norvegicus) (P35353 whole entry, looked up): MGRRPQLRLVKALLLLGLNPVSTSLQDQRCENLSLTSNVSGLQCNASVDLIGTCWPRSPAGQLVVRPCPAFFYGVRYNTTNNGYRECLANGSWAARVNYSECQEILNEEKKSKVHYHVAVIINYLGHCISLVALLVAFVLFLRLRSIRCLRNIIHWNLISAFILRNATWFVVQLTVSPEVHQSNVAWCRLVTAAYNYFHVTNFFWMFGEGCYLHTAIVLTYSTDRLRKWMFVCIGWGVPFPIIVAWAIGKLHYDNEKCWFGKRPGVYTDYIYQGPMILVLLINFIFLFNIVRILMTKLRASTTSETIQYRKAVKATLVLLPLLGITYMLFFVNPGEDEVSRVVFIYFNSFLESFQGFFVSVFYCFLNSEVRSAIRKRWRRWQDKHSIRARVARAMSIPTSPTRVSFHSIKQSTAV

`CCN(c1nc(C)cc(N2CCOCC2)n1)c1ccc(C(C)C)cc1Br` [(2-Bromo-4-isopropyl-phenyl)-ethyl-(4-methyl-6-morpholin-4-yl-pyrimidin-2-yl)-amine] returned a Ki in assay [1] of 63 nM. `COCC(COC)n1nnc2c(Nc3c(C)cc(C)cc3Cl)nc(C)cc21` [DMP-695] came in with a concentration for half-maximal inhibition (IC50) in assay [2] of 79 nM.

As a reminder, the Ki is a measure of affinity in units of concentration, obtained from inhibition or displacement. By IC50 is commonly meant the midpoint of a concentration-inhibition curve. Lower therefore signals higher potency.
